Source: PubChem BioAssay (NCI)
Where “and” joins values, the source holds several entries; their conditions need not be identical. Equal values may be shown once.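 Compound exposure: 48 hours, 5 concentrations, 96-well plates. The concentration for 50% growth inhibition is given as GI50. TGI is the concentration that stops growth completely.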

Assays:
Experiment in all cases: NCI-60 cell line screen, 48 h
[1] = system: SK-MEL-2 melanoma
[2] = system: HCT-15 colon
[3] = system: OVCAR-8 ovarian
[4] = system: SN12C renal
[5] = system: RXF 393 renal
[6] = system: BT-549 breast
[7] = system: MOLT-4 leukemia
[8] = system: EKVX NSCLC
[9] = system: MDA-MB-435
[10] = system: UACC-62 melanoma
[11] = system: UO-31 renal
[12] = system: SW-620 colon
[13] = system: K-562 leukemia
[14] = system: OVCAR-3 ovarian
[15] = system: NCI/ADR-RES ovarian
[16] = system: NCI-H226 lung
[17] = system: RPMI-8226 leukemia
[18] = system: MDA-MB-231 breast
[19] = system: OVCAR-5 ovarian
[20] = system: SK-MEL-5 melanoma
[21] = system: U251 CNS
[22] = system: A498 renal
[23] = system: 786-0 renal
[24] = system: DU-145 prostate
[25] = system: SF-295 CNS
[26] = system: TK-10 renal
[27] = system: SNB-75 CNS
[28] = system: SK-OV-3 ovarian
[29] = system: HT29 colon
[30] = system: NCI-H23 lung
[31] = system: MCF7 breast
[32] = system: OVCAR-4 ovarian
[33] = system: SR leukemia
[34] = system: IGROV1 ovarian
[35] = system: SF-539 CNS
[36] = system: HCC-2998 colon
[37] = system: KM12 colon
[38] = system: HOP-62 NSCLC
[39] = system: HOP-92 NSCLC
[40] = system: MALME-3M melanoma
[41] = system: SNB-19 CNS
[42] = system: LOX IMVI melanoma
[43] = system: A549 NSCLC
[44] = system: SK-MEL-28 melanoma
[45] = system: HS 578T breast
[46] = system: ACHN renal
[47] = system: CAKI-1 renal
[48] = system: NCI-H460 lung
[49] = system: HCT-116 colon
[50] = system: SF-268 CNS
[51] = system: COLO 205 colon
[52] = system: NCI-H522 lung
[53] = system: UACC-257 melanoma
[54] = system: CCRF-CEM leukemia
[55] = system: PC-3 prostate
[56] = system: M14 melanoma
[57] = system: T-47D breast
[58] = system: HL-60(TB) leukemia

In the case of `Nc1ccccc1C#C/C=C\C#Cc1ccc(OCCCNC(=O)c2cc3ccccc3[nH]2)cc1`, the GI50 [1] was greater than 100 µM, the TGI [1] was greater than 100 µM and the GI50 [2] was greater than 100 µM. It also gave a TGI [2] greater than 100 µM, a GI50 [3] of 42.4 µM and a TGI [3] greater than 100 µM. The GI50 [4] was 7.32 µM, the TGI [4] was 39.8 µM and the GI50 [5] was 7.15 µM. It also gave a TGI [5] of 22 µM, a GI50 [6] of 9.23 µM and a TGI [6] greater than 100 µM. It also gave a GI50 [7] of 49.4 µM, a TGI [7] greater than 100 µM and a GI50 [8] of 16.4 µM. It also gave a TGI [8] of 92.7 µM, a GI50 [9] of 20.6 µM and a TGI [9] greater than 100 µM. The GI50 [10] was 4.11 µM, the TGI [10] was greater than 100 µM and the GI50 [11] was 41.7 µM. The TGI [11] was greater than 100 µM, the GI50 [12] was greater than 100 µM and the TGI [12] was greater than 100 µM. For the same molecule, the GI50 [13] was 16.1 µM, the TGI [13] was greater than 100 µM and the GI50 [14] was 11.7 µM. The TGI [14] was 95.6 µM, the GI50 [15] was 10.1 µM and the TGI [15] was greater than 100 µM. It also gave a GI50 [16] of 14.4 µM, a TGI [16] of 87.7 µM and a GI50 [17] of 1.01 µM. It also gave a TGI [17] of 17.6 µM, a GI50 [18] of 1.93 µM and a TGI [18] of 14.6 µM. The GI50 [19] was 32.3 µM, the TGI [19] was greater than 100 µM and the GI50 [20] was 2.09 µM. It also gave a TGI [20] of 25.7 µM, a GI50 [21] of 12.5 µM and a TGI [21] of 25 µM. It also gave a GI50 [22] of 23 µM, a TGI [22] of 48.3 µM and a GI50 [23] of 12.6 µM. For the same molecule, the TGI [23] was 25.7 µM, the GI50 [24] was 35.4 µM and the TGI [24] was greater than 100 µM. It also gave a GI50 [25] of 12.1 µM, a TGI [25] of 47.1 µM and a GI50 [26] of 17.3 µM. The TGI [26] was 53.5 µM, the GI50 [27] was 11.2 µM and the TGI [27] was 73.3 µM. For the same molecule, the GI50 [28] was 4.36 µM, the TGI [28] was 33.1 µM and the GI50 [29] was 32 µM. It also gave a TGI [29] greater than 100 µM, a GI50 [30] of 7.62 µM and a TGI [30] of 43.6 µM. For the same molecule, the GI50 [31] was 1.26 µM, the TGI [31] was 7.15 µM and the GI50 [32] was 21.4 µM. For the same molecule, the TGI [32] was greater than 100 µM, the GI50 [33] was 23.3 µM and the TGI [33] was 99 µM. It also gave a GI50 [34] of 25.5 µM, a TGI [34] greater than 100 µM and a GI50 [35] of 18.2 µM. For the same molecule, the TGI [35] was 37.5 µM, the GI50 [36] was 31.5 µM and the TGI [36] was greater than 100 µM. For the same molecule, the GI50 [37] was 5.98 µM, the TGI [37] was greater than 100 µM and the GI50 [38] was 15.7 µM. It also gave a TGI [38] of 35.7 µM, a GI50 [39] of 14.4 µM and a TGI [39] of 37.5 µM. It also gave a GI50 [40] of 1.08 µM, a TGI [40] of 18.3 µM and a GI50 [41] of 20.6 µM. It also gave a TGI [41] of 56.8 µM, a GI50 [42] of 2.77 µM and a TGI [42] of 28.7 µM. The GI50 [43] was 11.6 µM, the TGI [43] was 31.3 µM and the GI50 [44] was greater than 100 µM. It also gave a TGI [44] greater than 100 µM, a GI50 [45] of 15.1 µM and a TGI [45] greater than 100 µM. The GI50 [46] was 6.61 µM, the TGI [46] was 40.9 µM and the GI50 [47] was 18.1 µM. The TGI [47] was 72 µM, the GI50 [48] was 9.83 µM and the TGI [48] was greater than 100 µM. It also gave a GI50 [49] of 12.4 µM, a TGI [49] of 40.6 µM and a GI50 [50] of 2.37 µM. For the same molecule, the TGI [50] was 37.4 µM, the GI50 [51] was 9.12 µM and the TGI [51] was greater than 100 µM. The GI50 [52] was greater than 100 µM, the TGI [52] was greater than 100 µM and the GI50 [53] was 13 µM. It also gave a TGI [53] of 53.3 µM.

In the case of `COc1ccc(S(=O)(=O)N2CCN(C(=O)c3ccc(-c4ccccc4)cc3)CC2C(=O)NO)cc1` (configuration not stated), the TGI [2] was 12.5 µM and > 100 µM, the TGI [3] was 12.5 µM and > 100 µM and the GI50 [4] was 2.16 µM and 16.2 µM. For the same molecule, the GI50 [54] was greater than 100 µM, the TGI [54] was greater than 100 µM and the GI50 [6] was 2.48 µM. It also gave a TGI [6] of 6.69 µM, a GI50 [7] of 15.9 µM and a TGI [7] of 95.9 µM. The GI50 [8] was 1.61 µM, the TGI [8] was 7.02 µM and the TGI [10] was 12.5 µM and > 100 µM. For the same molecule, the TGI [11] was 10.4 µM and > 100 µM, the GI50 [14] was 3.88 µM and 11.2 µM and the TGI [14] was 11.2 µM and 47.6 µM. The GI50 [16] was 5.2 µM and 20.7 µM, the TGI [16] was 12.5 µM and 88.9 µM and the GI50 [17] was greater than 100 µM. The TGI [17] was greater than 100 µM, the TGI [19] was 12.5 µM and > 100 µM and the TGI [21] was 12.5 µM and > 100 µM. For the same molecule, the GI50 [55] was 2.01 µM and 17.9 µM, the TGI [23] was 12.4 µM and > 100 µM and the GI50 [25] was 3.85 µM and 25.7 µM. The TGI [25] was 12.5 µM and > 100 µM, the GI50 [26] was 1.83 µM and 12.1 µM and the TGI [26] was 7.33 µM and 58.5 µM. The GI50 [27] was 3.66 µM, the TGI [27] was 10.3 µM and the GI50 [28] was greater than 100 µM. For the same molecule, the TGI [28] was greater than 100 µM, the GI50 [29] was 0.889 µM and the TGI [29] was 12.5 µM. The TGI [30] was 12.5 µM and > 100 µM, the GI50 [31] was 0.714 µM and the TGI [31] was 3.2 µM. For the same molecule, the GI50 [32] was 3.42 µM and 27.1 µM, the TGI [32] was 12.5 µM and > 100 µM and the GI50 [35] was 1.98 µM. For the same molecule, the TGI [35] was 4.22 µM, the GI50 [39] was greater than 100 µM and the TGI [39] was greater than 100 µM. The GI50 [56] was 1.96 µM, the TGI [56] was 10 µM and the GI50 [40] was 2.25 µM and 17.3 µM. The TGI [41] was 12.5 µM and > 100 µM, the TGI [57] was 12.5 µM and > 100 µM and the GI50 [43] was 8.47 µM and 30.7 µM. The TGI [43] was 12.5 µM and 82.2 µM, the TGI [44] was 12.5 µM and > 100 µM and the GI50 [46] was 3.28 µM and 20.6 µM. For the same molecule, the TGI [46] was 12.5 µM and 99.5 µM, the GI50 [47] was 2.99 µM and 21.9 µM and the TGI [47] was 12.5 µM and > 100 µM. The GI50 [58] was 16.8 µM, the TGI [58] was 38.1 µM and the GI50 [48] was 3.62 µM and 29.3 µM. For the same molecule, the TGI [48] was 12.5 µM and > 100 µM, the GI50 [49] was 2.92 µM and 25.5 µM and the TGI [51] was 12.5 µM and > 100 µM. The TGI [53] was 12.5 µM and > 100 µM.
